# Experimental data taken from patent US20120003151A1, “METHOD FOR EARLY IMAGING OF ATHEROSCLEROSIS” (priority 2009, published 2012).
# What was measured:
# folate receptor [1] = target: T1, folate receptor (Mus musculus, UniProt Q05685); assay: Autoradiography and histology of aortas after EC20-99mTc injection; assay type: in vivo, mice; design: from tissue; host or cells: atherosclerotic aortas / aorto-cardiac region of living apoE-/- mice (lesion macrophages)
# Protocol: In order to image areas of accumulation of EC20-^99mTc in atherosclerotic aortas, apoE−/− mice on a normal or Western diet were injected with EC20-^99mTc, euthanized, and thoracic aortas were excised. […] For cross sections, aortic roots and arches were cut and embedded in Tissue-Tek® O.C.T.™ mounting medium and frozen in liquid nitrogen. Serial sections were cut with a Leica CM1800 cryostat and placed on polylysine coated microscope slides (Thermo Scientific). Either whole aortas or aortic arch cross sections (40 μm) were exposed to a phosphor screen for 18 hours at 4° C. The phosphor screen was read using a Typhoon phosphorimager (GE Healthcare) at a resolution of 50 microns. Aortic tissue sections (10 m thick) adjacent to those used for autoradiography were also used for histology. H&E staining was performed to visualize lesion morphology. H&E staining of the sections was performed as follows.
# The slides were fixed for 10 minutes in zinc-buffered formalin. The slides were washed with distilled water. The slides were immersed in Gills-3 hematoxylin for 5 minutes. The slides were rinsed in distilled water and dipped twice in acidic ethanol. The slides were rinsed for 30 seconds with distilled water and for 3 minutes in tap water. The slides were transferred to alcoholic Eosin Y for 20 seconds. The slides were rinsed with water and dehydrated in 2 changes of 95% ethanol, 2 changes of 100% ethanol, and 2 changes of xylenes (3 minutes per change). Coverslips were mounted using Permount™ mounting medium and allowed to dry overnight. Slides were visualized with a light microscope (4× objective). In some cases, the percentage of lumen occlusion was analyzed using ImageJ software (National Institutes of Health).
# Staining with the macrophage-specific monoclonal antibody (Mac-3/CD107b; eBioscience Inc.) was performed as follows. Aortic arch sections were fixed with zinc-buffered formalin for 10 min, and endogenous biotin and peroxidase activity were blocked. Sections were incubated with anti-mouse CD107b antibody (1:50 dilution) for 1 h, and after washing, incubated with goat anti-rat biotinylated antibody (KPL Protein Research Products) at a 1:500 dilution for 30 min. After washing, streptavidin-HRP (BD Pharmingen) was added for an additional 30 min. Slides were developed with diaminobenzidine substrate (BD Pharmingen) according to manufacturer's instructions. Negative control consisted of slides developed in the absence of primary antibody. An Olympus BH-2 microscope coupled with a CCD camera was used to obtain light photomicrographs. […]
# folate receptor [2] = target: T1, folate receptor
# Protocol: (§1) EC20-^99mTc was prepared as described (Leamon et al., Bioconjug Chem, 2002, 13(6): 1200-10; incorporated herein by reference). Vials containing lyophilized EC20 were heated at 100° C. for 5 min, after which two mL of a 925 MBq/mL solution of sodium pertechnetate (Cardinal Health) was added and the vial was heated for an additional 15 min. After dilution with the desired volume of saline, mice were injected i.p. with either 400 μL of imaging agent (18.5 MBq, ˜250 nmoles/Kg of EC20) or the same volume of imaging agent supplemented with 100-fold molar excess of free folic acid (to compete for unoccupied folate receptors). Unbound EC20-^99mTc was allowed to clear from the tissues for a period of four hours prior to imaging.
# To analyze the accumulation of EC20-^99mTc in mouse aortas and heart tissues, mice were euthanized and thoracic aortas excised. Radioactivities were counted for 2 min using a gamma-counter (Packard). Results are reported as % ID/g tissue.
# In order to assess whether EC20-^99mTc is in fact targeting these regions of enhanced atherosclerosis, thoracic aortas and hearts were dissected, and accumulation of EC20-^99mTc in the resected tissues was quantitated by gamma counting.
# FR+ macrophages = assay: EC20-99mTc imaging after macrophage depletion with clodronate liposomes; assay type: in vivo; settings: apoE-/- mice, 8 weeks Western diet, 4 mg clodronate/dose i.p. daily for 5 days
# Protocol: PBS- and clodronate liposomes were synthesized as described (Buiting et al., J. Immunol. Methods, 1996, 192(1-2): 55-62; incorporated herein by reference). 86 mg egg phosphatidylcholine +8 mg cholesterol were dissolved in 1:1 chloroform:methanol. Solvent was evaporated using a rotoevaporator for 15 min, and the resulting film was rehydrated with PBS or a 0.6 M solution of clodronate (Sigma) in PBS for 2 hours. Resulting multi-lamellar vesicles were sonicated for 3 min and allowed to swell for 2 hours at 25° C. Liposomes were washed 3× with PBS by centrifugation at 100,000×g for 30 min and resuspended in 4 mL PBS. Liposomes were extruded 5× through both a 400 nm and 200 nm pore-size polycarbonate filter and stored at 4° C. until use. The resulting liposomes consisted of 7:1.3 molar ratio egg phosphatidylcholine:cholesterol, respectively. The efficiency of clodronate entrapment using this method was 7.8%.
# For systemic elimination of macrophages, apoE−/− mice were fed a Western diet for a period of 8 weeks, after which 200 μL of PBS- or clodronate-liposomes (4 mg clodronate/dose) were injected i.p. daily for 5 days. After treatment, mice were injected i.p. with EC20-^99mTc and imaged, as described above.
# folate receptor [3] = target: T1, folate receptor; assay: Radioimaging (gamma scintigraphy, ROI analysis) of EC20-99mTc in ApoE-/- mice; assay type: in vivo; design: from tissue; host or cells: atherosclerotic aortas / aorto-cardiac region of living apoE-/- mice (lesion macrophages)
# Protocol: as §1
# T1 sequence (Q05685 21-227): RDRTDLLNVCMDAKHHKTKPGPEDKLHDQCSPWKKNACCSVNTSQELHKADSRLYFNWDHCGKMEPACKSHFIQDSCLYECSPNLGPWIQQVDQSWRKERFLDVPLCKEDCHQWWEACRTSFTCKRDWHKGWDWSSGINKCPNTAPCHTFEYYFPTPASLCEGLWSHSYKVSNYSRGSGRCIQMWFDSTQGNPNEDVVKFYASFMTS
SMILES,"detectability of EC20 uptake in small, early, active atherosclerotic plaques (folate receptor [1]; ApoE-/- mice, Western Diet 0, 2, 12 or 26 weeks, H&E plaque size)","decrease of EC20-99mTc retention in the aortas by competition with excess folic acid (folate receptor [2]; apoE-/- mice on Western diet, compared to non-competed controls)","accumulation in the aortas, higher on Western chow than normal diet (folate receptor [2]; apoE-/- mice, 25 weeks on diet, gamma counting)","EC20-99mTc uptake in hearts relative to aortas (folate receptor [2]; mouse, in vivo)",reduction of EC20-99mTc uptake by clodronate-liposome treatment relative to PBS-containing liposomes (FR+ macrophages),"signal intensity after pre-injection of 100-fold excess free folic acid (folate receptor [3]; apoE-/- mice on Western diet, 25 weeks, folic acid competition)","average increase in EC20-99mTc signal intensity in the aorto-cardiac region, Western diet compared to normal rodent chow (folate receptor [3]; apoE-/- mice, 25 weeks on diet, i.p., imaged after 4 h clearance)","radioactivity in the aortic root and arch with 100-fold greater dose of free folic acid (folate receptor [1]; apoE-/- mice on Western diet, autoradiography)","correspondence of areas of high macrophage content and lesion formation with loci of elevated 99mTc emission (folate receptor [1]; apoE-/- mice, 25 weeks Western chow, serial sections: H&E, Mac-3, autoradiography)","uptake in the aortic root and arch by autoradiography, Western diet versus normal diet (folate receptor [1]; apoE-/- mice, whole aortas, phosphorimager)"
Nc1nc2ncc(CNc3ccc(C(=O)N[C@H](CCC(=O)NC[C@H](N)C(=O)N[C@@H](CC(=O)O)C(=O)N[C@@H](CS)C(=O)O)C(=O)O)cc3)nc2c(=O)[nH]1 [EC20],detectable,,,,,,,,,
"Nc1nc2ncc(CNc3ccc(C(=O)N[C@H](CCC(=O)NC[C@H](N)C(=O)N[C@@H](CC(=O)O)C(=O)N[C@@H](CS)C(=O)O)C(=O)O)cc3)nc2c(=O)[nH]1 [EC20-^99mTc, metal not drawn]",,41%,~120%,threefold lower,65%,reduced to near background levels,~70%,significantly reduced,invariably corresponded,significantly greater uptake
